# Publication PMC4015282, “Transcriptional comparison of the filamentous fungus Neurospora crassa growing on three major monosaccharides D-glucose, D-xylose and L-arabinose” (Biotechnology for Biofuels, 2014)
# Tests used:
# Format in all cases: cell-based
# Conditions in all cases: 3 mM sugar; labelled compound
# LAT-1 (NCU02188) [1] = molecular target: T1, LAT-1 (NCU02188) (Neurospora crassa, UniProt Q7S4D2); test: radiolabelled sugar uptake in recombinant yeast, […] min; growth complementation
# T1 construct: expressed from pRS426-type vector in hexose-transporter-null S. cerevisiae EBY.VW4000
# T1 sequence (Q7S4D2 1-518): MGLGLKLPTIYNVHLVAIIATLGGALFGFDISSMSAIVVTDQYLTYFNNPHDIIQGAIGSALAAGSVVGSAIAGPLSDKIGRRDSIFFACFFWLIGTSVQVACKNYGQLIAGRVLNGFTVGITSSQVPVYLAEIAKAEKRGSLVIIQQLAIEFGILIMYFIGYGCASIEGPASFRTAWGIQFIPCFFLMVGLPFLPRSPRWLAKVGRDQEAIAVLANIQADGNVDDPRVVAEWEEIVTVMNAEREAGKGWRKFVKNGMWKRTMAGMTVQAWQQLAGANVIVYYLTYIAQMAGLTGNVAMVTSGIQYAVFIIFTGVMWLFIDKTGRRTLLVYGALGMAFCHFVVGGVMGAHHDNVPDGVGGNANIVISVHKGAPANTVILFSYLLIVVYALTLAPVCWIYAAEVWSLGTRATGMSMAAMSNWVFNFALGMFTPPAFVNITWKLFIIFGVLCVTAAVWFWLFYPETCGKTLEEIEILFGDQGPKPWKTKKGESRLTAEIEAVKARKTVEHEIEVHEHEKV
# GLT-1 (NCU01633) [2] = molecular target: T2, GLT-1 (NCU01633) (Neurospora crassa, UniProt Q1K4S3); test: as above
# T2 construct: cDNA cloned in pRS426 shuttle vector (PGK1 promoter, GFP ORF, CYC1 terminator)
# T2 sequence (Q1K4S3 1-532): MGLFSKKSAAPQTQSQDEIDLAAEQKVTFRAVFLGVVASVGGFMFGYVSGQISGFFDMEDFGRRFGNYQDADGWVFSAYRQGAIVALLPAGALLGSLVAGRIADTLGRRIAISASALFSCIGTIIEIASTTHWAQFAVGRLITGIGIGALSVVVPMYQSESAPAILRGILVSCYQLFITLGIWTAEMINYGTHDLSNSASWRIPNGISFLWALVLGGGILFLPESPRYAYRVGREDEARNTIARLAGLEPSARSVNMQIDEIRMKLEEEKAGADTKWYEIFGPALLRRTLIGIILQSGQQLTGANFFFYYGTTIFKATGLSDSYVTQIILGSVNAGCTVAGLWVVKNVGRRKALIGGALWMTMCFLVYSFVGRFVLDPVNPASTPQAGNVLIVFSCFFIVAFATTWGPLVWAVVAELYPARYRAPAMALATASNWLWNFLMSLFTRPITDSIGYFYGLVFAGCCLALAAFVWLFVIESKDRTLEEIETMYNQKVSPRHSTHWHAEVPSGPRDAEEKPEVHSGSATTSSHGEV
# GLT-1 (NCU01633) [3] = molecular target: T2, GLT-1 (NCU01633); test: radiolabelled sugar uptake in recombinant yeast, […] min
# LAT-1 (NCU02188) [4] = molecular target: T1, LAT-1 (NCU02188); test: as above
structure (smiles),measurement,setting,value
OC[C@H]1OC(O)[C@H](O)[C@@H](O)[C@@H]1O (stereo partly drawn) [D-glucose],"radiolabelled sugar uptake in recombinant yeast, 2 min; growth complementation",LAT-1 (NCU02188) [1],"does complement growth of EBY.VW4000 strain on D-glucose, indicating this protein can transport D-glucose"
same,"radiolabelled sugar uptake in recombinant yeast, 2 min; growth complementation",GLT-1 (NCU01633) [2],D-glucose uptake was two orders of magnitude higher compared to that of D-xylose
OC1OC[C@@H](O)[C@H](O)[C@H]1O (stereo partly drawn) [D-xylose],"radiolabelled sugar uptake in recombinant yeast, 2 min",GLT-1 (NCU01633) [3],D-glucose uptake was two orders of magnitude higher compared to that of D-xylose
OC1OC[C@H](O)[C@H](O)[C@H]1O (stereo partly drawn) [L-arabinose],"radiolabelled sugar uptake in recombinant yeast, 2 min",LAT-1 (NCU02188) [4],the L-arabinose uptake rate was much higher than that of D-glucose
